In patent US20070274947A1, “Antisense Oligonucleotides Directed to Ribonucleotide Reductase R1 and Uses Thereof in the Treatment of Cancer” (priority 2003, published 2007):

Legend:
[1] = test system: DU145 human prostatic cancer cells; experiment: DU145 prostate tumor growth in SCID mice; assay type: in vivo
Description: DU145 human prostatic cancer cells (1×10^7 cells in 100 μl of PBS) were subcutaneously injected into the right flank of 6-7 week old male SCID mice. After the size of the tumors reached an approximate volume of 50 mm^3, 13 days post tumor cell injection, SEQ ID NO:1 was administered by bolus infusion into the tail vein every other day at 10 mg/kg. Control animals received saline alone for the same period. Treatments lasted for 30 days thereafter. Antitumor activities were estimated by the inhibition of tumor volume, which was measured with a caliper on nine different occasions over 30-day period. Each point represents mean tumor volume calculated from 5 animals per experimental group.
In both experiments, DU145 human prostatic cancer cells (1×10^7 cells in 100 μl of PBS) were subcutaneously injected into the right flank of 6-7 weeks old male SCID mice. After the size of tumor reached an approximate volume of 50 mm^3, 13 (upper panel) or 11 (lower panel) days post tumor cell injection, SEQ ID NO:1 was administered by bolus infusion into the tail vein every other day at 10 mg/kg 15 times (upper panel) or 14 times (lower panel), respectively. Control animals received saline alone for the same period. Antitumor effect of SEQ ID NO:1 was further compared to that of mitoxantrone (novantrone®) alone or in combination. Mitoxantrone was administered intravenously once at the beginning of the treatments at a dose of 2 mg/kg (upper panel) or once a week for four weeks at a reduced dose of 0.8 mg/kg (lower panel). All treatments were stopped at day 42 (upper panel) or 38 (lower panel), respectively. A day after the last treatment, tumors were excised from the animals and their weights were measured.

[2] = Phase I study, 14-day continuous intravenous infusion in patients with solid tumors or lymphoma
Description: To determine the maximal tolerated dose (MTD) and recommended Phase II dose of SEQ ID NO:1 in patients with solid tumors or lymphoma when administered as a 14-day continuous intravenous infusion.
Safety: Adverse events and laboratory evaluation. Dosage Selection and Dosing Interval:
The starting dose in the Phase I dose-escalation study is 6.0 mg/m^2/day (approximately 0.16 mg/kg/day) infused over 14 days.
DLT Definition: • Grade 4 neutropenia associated with fever or lasting 3 days or longer. • Platelet count <25,000 μl. • Any ≧ grade 3 coagulation abnormality (defined by PT and aPTT values). • Clinical hemorrhage ≧ grade 1. • Nausea/vomiting ≧ grade 3 despite maximal antiemetic therapy; diarrhea ≧ grade 3 despite maximal anti-diarrheal therapy. • Any other non-hematological toxicity ≧grade 3 with the exception of alopecia Interim Evaluation Status:
Preliminary evaluability assessment was performed. In the Phase I open label single arm study, SEQ ID NO:1 was administered in daily doses escalating from 6.0 mg/m^2 to 210.9 mg/m^2 in patients with solid tumors or lymphoma. SEQ ID NO:1 was administered as monotherapy by ambulatory intravenous infusion for 14 days in each 21 day cycle. […] Expected toxicities for agents in the same class as SEQ ID NO:1, phosphorothioate oligonucleotides, include fatigue, prolonged coagulation (PT/aPITI) times and elevated transaminase ALT/AST) levels.

[3] = test system: Human taxol-resistant promyelocytic leukemia cells (HL-60); experiment: Taxol-resistant promyelocytic leukemia (HL-60) growth in SCID mice; assay type: in vivo; settings: SEQ ID NO:1 10 mg/kg i.v. every other day, taxol 10 mg/kg i.p. once a week
Description: Human taxol-resistant promyelocytic leukemia cells (HL-60) (7×10^6 cells in 100 μl of PBS) were injected into the right flank of 6-7 weeks old female SCID mice. After the size of tumor reached an approximate volume of 100 mm^3, 10 days post tumor cell injection, SEQ ID NO:1 was administered by bolus infusion into the tail vein every other day at 10 mg/kg. Control animals received saline alone for the same period. The anti-tumor effect of SEQ ID NO:1 was further compared to that of taxol. Taxol was administered i.p. once a week at a dose of 10 mg/kg. Anti-tumor activity was estimated by the inhibition of tumor volume, which was measured with caliper (FIG. 17A). Each point represents mean tumor volume calculated from 10 animals per experimental group. In addition animals were sacrificed and tumor weights taken at the end of the study.

[4] = cynomolgus monkey, in vivo
[5] = test system: HT-29 human colon cancer cells; experiment: HT-29 colon tumor growth in CD-1 nude mice; assay type: in vivo; settings: for tumor weight / tumor growth: SEQ ID NO:1 10 mg/kg every other day
Description: A. HT-29 human colon cancer cells (3×10^6 cells in 100 μl of PBS) were subcutaneously injected into the right flank of 6-7 weeks old female CD-1 nude mice. After the size of tumor reached an approximate volume of 50 mm^3, 4 days post tumor cell injection, SEQ ID NO:1 was administered by bolus infusion into the tail vein every other day at 10 mg/kg. Control animals received saline alone for the same period. Antitumor effect of SEQ ID NO:1 was further compared to that of mitomycin C alone or that of SEQ ID NO:1 in combination with mitomycin C. Mitomycin C was administered intravenously at days 4, 11 and 18 with a dose of 3.5 mg/kg/week, one hour after the treatments with SEQ ID NO:1. All treatments were stopped at day 22. A day after the last treatment, tumors were excised from the animals and their weights were measured (FIG. 13A). […] The delay in tumor growth achieved with SEQ.
B. HT-29 human colon cancer cells (3×10^6 cells in 100 μl of PBS) were subcutaneously injected into the right flank of 5-6 week old female CD-1 nude mice. After the size of tumor reached an approximate volume of 100 mm^3, 7 days post tumor cell injection, SEQ ID NO:1 was administered by bolus infusion into the tail vein every other day at 10 mg/kg. Control animals received saline alone for the same period. Antitumor effect of SEQ ID NO:1 was further compared to that of CPT-11 alone or that of SEQ ID NO:1 in combination with CPT-11. CPT-11 was administered intraperitoneally for 5 days in a row from day 7-12 with a dose of 20 mg/kg in 100 μl saline. All treatments were stopped at day 32. A day after the last treatment, tumors were excised from the animals and their weights were measured (FIG. 13B).

In the case of “5′-CTCTAGCGTCTTAAAGCCGA-3′ (CTCTAGCGTCTTAAAGCCGA; chemistry not given here) [SEQ ID NO:1]”, the “inhibition of tumor volume” value ([1]; SCID mice, 10 mg/kg i.v. every other day, 30 days, vs saline, 10 mg/kg) was “strong inhibitory effects”, the “tumor weight / tumor growth” value ([1]; upper panel FIG. 2, SEQ ID NO:1 10 mg/kg every other day 15 times, mitoxantrone 2 mg/kg i.v. once, vs saline) was “significant delay of tumor growth” and the “delay in tumor growth compared with mitoxantrone alone” value ([1]; upper panel FIG. 2, mitoxantrone 2 mg/kg once) was “superior to the inhibitory effects observed with mitoxantrone alone”. The “drug related serious adverse events” value ([2]; human, in vivo) was “no drug related serious adverse events”, the tolerability ([2]; human, in vivo) was “well tolerated” and the “additional sporadic toxicities considered possibly related to study therapy” value ([2]; interim evaluation) was “Grade 3 hypokalemia, Grade 3 increased blood alkaline phosphatase and Grade 3 diarrhea”. For the same substance, the “patients with Grade 3 fatigue” value ([2]; interim evaluation) was “Two patients”, the “patients with Grade 3 increased ALT” value ([2]; interim evaluation) was “three patients” and the “patients with Grade 3 increased AST” value ([2]; interim evaluation) was “one patient”. For the same substance, the “patients with prolonged aPTT” value ([2]; interim evaluation) was “one patient”, the “maximum tolerated dose (MTD)” value ([2]; patients, no MTD seen up to and including this dose, interim) was ≥ 210.9 mg/m^2/day and the “tumor growth / tumor weight” value [3] was “significant reduction of tumor weight”. The “Cmax and AUC estimates versus dose” value [4] was “proportional with the administered dose”, the “mean Cl, high dose group compared to low dose group” value [4] was “slightly increased mean Cl value” and the “mean elimination t1/2, high dose group compared to low dose group” value [4] was “significantly larger mean elimination t1/2”. The “sex differences in pharmacokinetics” value [4] was “no clear observed sex differences”, the “delay in tumor growth compared with mitomycin C alone” value ([5]; FIG. 13A) was “superior to the inhibitory effects observed with mitomycin C alone” and the “tumor weight / tumor growth” value ([5]; FIG. 13A, mitomycin C 3.5 mg/kg/week i.v., stopped day 22) was “significant delay of tumor growth”. The “tumor weight / tumor growth” value ([5]; FIG. 13B, CPT-11 20 mg/kg i.p. 5 days, stopped day 32) was “significant delay of tumor growth”.
